From patent US20250281497A1, “FUSED AMINO PYRIMIDINE COMPOUNDS FOR TREATMENT OF SEIZURE DISORDERS” (Ovid Therapeutics Inc., priority 2024, published 2025)

Experiments:
KA induced SE [1] = assay: Kainic acid (KA) induced SE, EEG recording, pretreatment; format: in vivo, mice; conditions: mice pretreated with vehicle; DZ 10 mg/kg IP 2h after KA; pre 4.2±2.4×10^−6
Excerpt: This model was chosen due to the similarities with patients undergoing SE, as KA-induced seizures become refractory to benzodiazepines (BDZs) within minutes (Betjemann and Lowenstein, Lancet Neurol 14, 615-624 (2015); Crawshaw and Cock, (2020a) [Seizure: Eur. J. Epilep. 75 (2020) 145-152] Seizure 80, 282; Lee et at, 2022, supra; Reddy and Kuruba, Int J Mol Sci 14, 18284-18318 (2013)).
(§1) EEG recordings and analysis. WT C57Bl/6J adult male mice (12 weeks) were anesthetized with isofluorane and implanted with EEG/EMG electrodes and allowed to recover for 7 days prior to experimentation. […] 2h following KA administration mice were injected with a saturating concentration of diazepam (DZ) 10 mg/kg (IP) and recordings were extended for a further 60 min. […] LabChart 8 software was used for data analysis. Epileptiform activity was identified by changes in the amplitude of electrographic activity characterized by consistent changes in the power of the Fast Fourier transform (FFT) of the EEG and abnormal activity characterized by periods of rhythmic spiking lasting longer than 30s (Moore et al., 2017, supra; Silayeva et al., 2015, supra; Sivakumaran et al., J. Neurosci. 35, 8291-8296 (2015)).
To provide quantitative insights on the effects of KA, raw EEG recordings were subject to Fast-Fourier transformation (8K FFT size, Hann (cosine-bell), 87.50% window overlap) for frequencies between 0-100 Hz 2h after KA injection (Lee et at, 2022, supra).
30 or 60 min later mice were injected with KA (20 mg/kg) and 2h later with DZ as detailed above.

KA induced SE [2] = assay: KA induced ongoing SE, EEG recording, treatment 2h after KA; format: in vivo, mice
Procedure: as §1
To evaluate the potential of KCC2 activators to terminate ongoing SE, the KA model described above was employed. Mice were injected with KA (20 mg/Kg; IP). […] Spectral data were then subjected to FFT and the total EEG power between 1-100 Hz of the 2h following KA treatment (pre-drug) and 30 min following their injection (post-drug) were compared (FIG. 6B). In mice treated with DZ alone variable effects were observed, from large increases to modest reductions in EEG power, but these effects were not significant (FIG. 6C; pre=1.1±0.2×10^−6, post=4.4±7.4×10^−7 μV^2, p=0.214, n=13-14 mice). […] The latency of the treatments to modify EEG power was examined by measuring the time taken for this parameter to be reduced to 50% (FIG. 6E). […] Finally in mice treated with DZ alone 62% were insensitive to the effects of this agent on EEG power.

## CN1C(=O)CN=C(c2ccccc2)c2cc(Cl)ccc21 [DZ, diazepam]
KA induced SE [1]
  total EEG power post DZ: 2.9±2.7×10^−6 μV^2
KA induced SE [2]; 30 min after injection, given 2h after KA, DZ 10 mg/kg, Compound A 50 mg/Kg IP
  total EEG power post-drug: 4.4±7.4×10^−7 μV^2
KA induced SE [2]; treatment 2h after KA
  mice insensitive to DZ effects on EEG power: 62%
